Test results reported in patent publication US20190256827A1, “EPIGENOME EDITING SYSTEMS AND METHODS” (STC.UNM, priority 2017, published 2019).

Legend:
Assay type in all cases: cell-based, human
[1] = system: IL1RN mRNA in HEK293T cells; experiment: qPCR of IL1RN mRNA levels (dCas9-PYL-HA, FLAG-ABI-P300, sgRNAs)
Method: To study how IL1RN expression levels change, total RNAs from the cell lysates generated in the above experiment were purified and then subjected to qPCR analysis to quantify mRNA levels.
Human embryonic kidney cell HEK293T (American Type Culture Collection, Manassas, Va.) was cultured in Dulbecco's modified Eagle's medium (DMEM) (Gibco) with 10% FBS (Atlanta Biologicals), 1× GlutaMax (Gibco, Thermo Fisher Scientific, Inc., Waltham, Mass.), and 1× penicillin/streptomycin (Pen/Strep; Gibco, Thermo Fisher Scientific, Inc., Waltham, Mass.). Cells (100,000/ml) were plated in 24-well or 10-cm cell culture plate the day before transfection. For each well of 24-well plate transfection, 500 ng of dCas9-PYL-HA, 420 ng of FLAG-ABI-P300, and a total amount of 200-ng mix of gRNAs, with a 50-ng per each gRNA, were mixed with 50×(v/w) Opti-MEM (Gibco, Thermo Fisher Scientific, Inc., Waltham, Mass.), then incubate with the same volume of 3 μg PEI-Opti-MEM solution for 20 minutes at room temperature. Then, 100 μL of PEI-combined plasmids were added to every single well of 24-well plate and cultured for 24 hours before experiments were performed. For a 10 cm plate, 1 mL of PEI-combined plasmids were needed. After six hours transfection, cells were washed and incubated for another 1-72 hours before experiments were performed.
Total RNA was extracted using the EZNA Total RNA Kit I (Omega Bio-tek, Inc., Norcross, Ga.). qPCR reactions were performed on cDNA prepared from 1,000 ng of total cellular RNA using the High-Capacity cDNA Reverse Transcription Kit (Applied Biosystems Co., Thermo Fisher Scientific, Inc., Foster City, Calif.). TaqMan qPCR probes (Thermo Fisher Scientific, Inc., Waltham, Mass. IL1RN, Hs00893626; GRM2, Hs00968358; HBA, Hs00361191; MYOD1 Hs02330075; GAPDH, Hs99999905) and Fast Advanced Master Mix (Life Technologies Co., Co., Thermo Fisher Scientific, Inc., Carlsbad, Calif.) were used in multiplexed reactions and 384-well format in a 7900HT Fast Real-Time PCR System (Applied Biosystems Co., Thermo Fisher Scientific, Inc., Foster City, Calif.). All measurements were performed at least in triplicate. Data were analyzed using the SDS software, version 2.4 (Applied Biosystems Co., Thermo Fisher Scientific, Inc., Foster City, Calif.), by the ΔΔCt method: the Ct values of target gene were normalized to Ct values of GAPDH, the folds of target gene expression changes were normalized to experimental controls. Analyzed data are reported as the mean±s.e.m. for biological replicates. In ChIP assays, the Ct values of antibodies pulled down segments were normalized to the Ct values of 10% input.

[2] = system: TIR1*/AID dimerization, inducible EGFP reporter in HEK293T cells; experiment: IAA-inducible EGFP transcriptional activation assay (GAL4DBD-TIR1* or GAL4DBD-TIR1^WT with VP16AD-AID); details: with or without IAA for 24 hours
Description: Based on sequence alignment analysis against Arabidopsis thaliana TIR1, a mutant form of Oryza sativa TIR1 (TIR1*) was engineered. TIR1* contained a double mutation, where glutamic acid residues at position 7 and position 10 were replaced with lysine residues (YFPEKVVKHIFSFL, SEQ ID NO:125) that inhibited the ability of TIR* to interact with the SCF complex. To test if TIR1* indeed no longer mediated IAA-induced degradation, but would still bind to AID in the presence of IAA, an IAA-inducible EGFP transcriptional activation assay was constructed. In this assay, EGFP would only be expressed when a functional transcriptional activator was reconstituted by IAA from the two split halves (a DNA binding domain, DBD, and an activation domain, AD, each linked to an IAA-dimerizable protein, TIR* and AID). DNA constructs were made that encoded fusion proteins of GAL4DBD-TIR1*, GAL4DBD-TIR1^WT (the mutant (TIR*) and the wild type TIR1 (TIR1^WT) fused to DBD from GAL4, respectively) and VP16AD-AID (AID fused to VP16 AD). If the AID fusion protein was degraded or the dimerization of TIR1 and AID was disrupted, no EGFP expression would occur. Either GAL4DBD-TIR1* or GAL4DBD-TIR1^WT was co-transfected with VP16AD-AID and an inducible EGFP reporter construct that contains 5×GALDBD binding sites into HEK293T cells with or without the addition of IAA for 24 hours.

[3] = system: GAL4DBD-TIR1*/VP16AD-AID, inducible luciferase reporter in HEK293T cells; experiment: Inducible luciferase reporter assay, IAA-responsive system (orthogonality and reversibility)
Method: To ensure that IAA and ABA could be used to independently control two histone modification editing events, the orthogonality between these two systems was tested. HEK293T cells were co-transfected with either GAL4DBD-TIR1*/VP16AD-AID (responsive to IAA) or GAL4DBD-ABI/VP16AD-PYL (responsive to ABA), and an inducible luciferase reporter construct. This was followed by treating cells with either IAA or ABA (or DMSO as a control) for 24 hours. […] To test the reversibility of IAA-induced dimerization, in which it was critical to achieve precise temporal control, HEK293T cells were co-transfected with GAL4DBD-TIR1*, VP16AD-AID, and an inducible luciferase expression construct, and then treated cells with 50 μM IAA for 24 hours. Cells were then washed with fresh media without IAA to remove the inducer (or no washing as a control). They were then harvested for luciferase assays after washing.

| SMILES | IL1RN mRNA expression with caged ABA, no UV light ([1]; 20 μM ABA-DMNB, not irradiated, vs DMSO) | IL1RN mRNA levels after uncaging by UV light ([1]; ABA-DMNB uncaged by exposure to UV light) | expression of EGFP [2] | reversibility of IAA-induced luciferase expression after washing ([3]; 50 μM IAA for 24 hours, then washed with fresh media without IAA) | luciferase expression, IAA-responsive system ([3]; treated with IAA or ABA or DMSO for 24 hours) |
| --- | --- | --- | --- | --- | --- |
| COc1cc(COC(=O)/C=C(C)\C=C\[C@@]2(O)C(C)=CC(=O)CC2(C)C)c([N+](=O)[O-])cc1OC [ABA-DMNB] | at levels of negative control (DMSO) | mRNA levels increased |  |  |  |
| O=C(O)Cc1c[nH]c2ccccc12 [IAA, indole-3-acetic acid] |  |  | Only the combination of the TIR1 mutant TIR* and the IAA addition induced the expression of EGFP | readily reversible | Only the proper combination of inducer with corresponding binding proteins could induce luciferase expression |
